For orientation: GI50 means the concentration that inhibits growth by half. Low values mean greater sensitivity of the cells, high ones lower sensitivity of the cells. Broadly, the IC50 is the concentration at which inhibition is half-maximal. Usually EC50 stands for the concentration at which the effect is half-maximal. Read a low EC50 as a more potent agent. For orientation: inhibition means the share of the control response that was lost under treatment. Lower therefore signals little suppression.

Molecules are shown by their SMILES. In brackets after ≈: the same amount, converted by molar mass.

One assay has as its system 786-0. Kind of assay: Antitumor activity against human 786-0 cells. In kind it is functional.
The target of another assay is Protein kinase C (PKC). Kind of assay: Inhibition of Protein kinase C (unknown origin). In kind it is protein assay, Homo sapiens.
The subject of the next assay is L5178Y. Kind of assay: Cytotoxicity against mouse L5178Y cells by MTT assay. The class given is functional, cell-based. On the technique in general: Tetrazolium assays rely on reduction of a dye to a coloured formazan, in cell work by metabolically active cells.
The target of assay [1] is Dual specificity tyrosine-phosphorylation-regulated kinase 1A (Homo sapiens, UniProt Q13627).
Description: Inhibition of DYRK1A (unknown origin)
For another assay, the target named is Casein kinase I. Briefly: Inhibition of CK1 (unknown origin). In kind it is protein assay, Homo sapiens.
In the next assay the target is CDK9/Cyclin T (Homo sapiens, UniProt P50750). Briefly: Inhibition of CDK9/Cyclin T (unknown origin). In kind it is protein-complex assay.
Assay [2] addresses Cyclin-dependent kinase 2/cyclin A (Homo sapiens, UniProt P24941). Briefly: Inhibition of CDK2/Cyclin A (unknown origin). In kind it is protein-complex assay.
Assay [3] has as its target Cyclin-dependent kinase 5/CDK5 activator 1 (Homo sapiens, UniProt Q00535). Briefly: Inhibition of CDK5/p25 (unknown origin). In kind it is protein-complex assay.
Assay [4] concerns the target Cyclin-dependent kinase 1/cyclin B (Homo sapiens, UniProt P06493). Briefly: Inhibition of CDK1/Cyclin B (unknown origin) in presence of gamma32P-ATP by scintillation counter analysis. The class given is protein-complex assay.
Assay [5] is filed under the species Homo sapiens. Kind of assay: Selectivity ratio of IC50 for Chk1 (unknown origin) to IC50 for (unknown origin).
A further assay has as its system MDA-MB-231. Kind of assay: Cytotoxicity against human MDA-MB-231 cells by MTT assay. In kind it is functional, cell-based.
Another assay deals with MCF7. Kind of assay: Cytotoxicity against human MCF7 cells by MTT assay. The class given is functional, cell-based.
In another assay the target is Integrin alpha-V/beta-3 (Homo sapiens, UniProt P05106+P06756). Kind of assay: Antagonist activity against human integrin alphaVbeta3 expressed in CHO-K1 cells measured after 4 hrs by Cell adhesion assay. The class given is cell-based.
Integrin alpha-V/beta-3, sequence (P05106 27-788 limits assumed): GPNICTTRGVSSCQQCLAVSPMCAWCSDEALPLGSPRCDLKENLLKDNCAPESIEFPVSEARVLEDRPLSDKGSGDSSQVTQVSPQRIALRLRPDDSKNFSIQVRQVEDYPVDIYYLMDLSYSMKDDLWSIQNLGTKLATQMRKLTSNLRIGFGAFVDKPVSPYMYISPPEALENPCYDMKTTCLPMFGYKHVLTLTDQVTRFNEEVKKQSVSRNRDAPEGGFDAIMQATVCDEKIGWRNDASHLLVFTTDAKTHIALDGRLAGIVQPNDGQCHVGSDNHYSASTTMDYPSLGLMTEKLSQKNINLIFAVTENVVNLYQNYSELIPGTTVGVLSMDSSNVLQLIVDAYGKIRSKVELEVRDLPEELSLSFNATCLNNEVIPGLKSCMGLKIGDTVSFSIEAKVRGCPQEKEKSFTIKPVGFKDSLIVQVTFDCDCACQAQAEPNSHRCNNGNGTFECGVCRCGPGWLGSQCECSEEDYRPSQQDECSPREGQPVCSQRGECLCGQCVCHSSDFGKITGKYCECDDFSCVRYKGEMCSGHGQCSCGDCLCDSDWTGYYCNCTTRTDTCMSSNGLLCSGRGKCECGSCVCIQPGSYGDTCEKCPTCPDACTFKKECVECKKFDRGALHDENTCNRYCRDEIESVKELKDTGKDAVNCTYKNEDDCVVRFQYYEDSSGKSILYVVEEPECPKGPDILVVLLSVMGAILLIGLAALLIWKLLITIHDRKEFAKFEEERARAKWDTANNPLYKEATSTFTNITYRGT
Integrin alpha-V/beta-3, sequence (P06756 31-889 limits assumed): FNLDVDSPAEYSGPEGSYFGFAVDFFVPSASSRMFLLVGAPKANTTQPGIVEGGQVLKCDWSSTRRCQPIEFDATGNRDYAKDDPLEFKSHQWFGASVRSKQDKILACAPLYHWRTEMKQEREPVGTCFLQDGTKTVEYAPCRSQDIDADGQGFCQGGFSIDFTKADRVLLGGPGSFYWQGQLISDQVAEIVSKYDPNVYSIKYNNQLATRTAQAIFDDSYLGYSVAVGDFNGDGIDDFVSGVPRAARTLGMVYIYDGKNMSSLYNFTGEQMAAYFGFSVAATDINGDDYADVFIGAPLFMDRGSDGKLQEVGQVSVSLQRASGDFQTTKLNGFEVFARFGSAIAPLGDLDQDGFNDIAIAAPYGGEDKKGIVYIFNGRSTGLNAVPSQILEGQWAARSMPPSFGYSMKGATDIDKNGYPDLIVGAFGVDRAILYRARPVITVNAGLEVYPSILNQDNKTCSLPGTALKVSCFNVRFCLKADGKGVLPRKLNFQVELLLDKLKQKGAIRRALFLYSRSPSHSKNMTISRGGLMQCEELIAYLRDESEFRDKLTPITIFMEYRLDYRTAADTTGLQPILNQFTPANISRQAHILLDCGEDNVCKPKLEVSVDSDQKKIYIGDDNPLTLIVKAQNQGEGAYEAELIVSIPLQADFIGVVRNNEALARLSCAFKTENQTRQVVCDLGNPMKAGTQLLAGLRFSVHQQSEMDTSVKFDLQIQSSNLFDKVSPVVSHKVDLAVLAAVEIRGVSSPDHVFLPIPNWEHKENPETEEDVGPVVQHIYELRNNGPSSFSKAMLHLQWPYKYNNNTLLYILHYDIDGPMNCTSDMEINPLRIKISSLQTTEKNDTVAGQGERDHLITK
Integrin alpha-V/beta-3, sequence (P06756 891-1048 limits assumed): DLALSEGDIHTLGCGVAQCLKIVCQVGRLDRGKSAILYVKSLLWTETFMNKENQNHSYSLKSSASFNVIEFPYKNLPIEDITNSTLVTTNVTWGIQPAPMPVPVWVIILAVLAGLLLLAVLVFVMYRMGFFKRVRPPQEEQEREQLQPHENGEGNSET
Assay [6] deals with RAF proto-oncogene serine/threonine-protein kinase (Homo sapiens, UniProt P04049). Kind of assay: Inhibition of c-Raf (unknown origin).
Assay [7] can be described thus: Inhibition of cGMP-dependent protein kinase (unknown origin). Details: species or system Homo sapiens.
Assay [8] has as its target Cyclin-dependent kinase 4/cyclin D1 (Homo sapiens, UniProt P11802). Kind of assay: Inhibition of CDK4/Cyclin D1 (unknown origin). In kind it is protein-complex assay.
Assay [9] can be described thus: Inhibition of MAPKK (unknown origin). Details: species or system Homo sapiens.
A short description of assay [10]: Inhibition of cAMP-dependent protein kinase (unknown origin). Details: species or system Homo sapiens.
Assay [11] addresses Serine/threonine-protein kinase Chk1 (Homo sapiens, UniProt O14757). Briefly: Inhibition of Chk1 (unknown origin).
Assay [12] has as its target Serine/threonine-protein kinase PLK1 (Homo sapiens) (UniProt P53350). Briefly: Inhibition of PLK1 (unknown origin) at 10 uM relative to control.
In assay [13] the target is Mitogen-activated protein kinase kinase kinase 11 (Homo sapiens) (UniProt Q16584). Briefly: Inhibition of MLK3 (unknown origin) at 10 uM relative to control.
Mitogen-activated protein kinase kinase kinase 11 (Homo sapiens), sequence (Q16584 whole entry, looked up): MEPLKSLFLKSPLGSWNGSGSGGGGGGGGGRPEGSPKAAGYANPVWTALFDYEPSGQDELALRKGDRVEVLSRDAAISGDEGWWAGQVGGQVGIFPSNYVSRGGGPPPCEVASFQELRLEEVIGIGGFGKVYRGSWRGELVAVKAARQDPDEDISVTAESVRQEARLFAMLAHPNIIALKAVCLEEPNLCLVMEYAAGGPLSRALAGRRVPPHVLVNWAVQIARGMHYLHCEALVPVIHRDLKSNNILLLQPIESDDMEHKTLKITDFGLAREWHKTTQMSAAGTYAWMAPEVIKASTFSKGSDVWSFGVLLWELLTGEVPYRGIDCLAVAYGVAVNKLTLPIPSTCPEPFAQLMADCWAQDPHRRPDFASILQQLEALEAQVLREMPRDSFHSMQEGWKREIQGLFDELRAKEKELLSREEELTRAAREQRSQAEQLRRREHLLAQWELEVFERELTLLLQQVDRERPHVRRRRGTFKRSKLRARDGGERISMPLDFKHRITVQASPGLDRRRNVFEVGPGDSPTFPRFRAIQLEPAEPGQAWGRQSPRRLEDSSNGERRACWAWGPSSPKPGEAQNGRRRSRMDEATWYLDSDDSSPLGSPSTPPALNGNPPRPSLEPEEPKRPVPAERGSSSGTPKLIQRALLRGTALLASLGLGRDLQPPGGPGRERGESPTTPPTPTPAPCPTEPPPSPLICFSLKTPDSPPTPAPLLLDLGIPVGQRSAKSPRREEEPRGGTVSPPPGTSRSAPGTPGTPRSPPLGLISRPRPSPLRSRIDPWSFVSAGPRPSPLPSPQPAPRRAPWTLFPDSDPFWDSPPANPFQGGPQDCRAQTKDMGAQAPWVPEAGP
The target of assay [14] is Serine/threonine-protein kinase pim-1 (Homo sapiens) (UniProt P11309). Briefly: Inhibition of PIM1 (unknown origin) at 10 uM relative to control.
Serine/threonine-protein kinase pim-1 (Homo sapiens), sequence (P11309 whole entry, looked up): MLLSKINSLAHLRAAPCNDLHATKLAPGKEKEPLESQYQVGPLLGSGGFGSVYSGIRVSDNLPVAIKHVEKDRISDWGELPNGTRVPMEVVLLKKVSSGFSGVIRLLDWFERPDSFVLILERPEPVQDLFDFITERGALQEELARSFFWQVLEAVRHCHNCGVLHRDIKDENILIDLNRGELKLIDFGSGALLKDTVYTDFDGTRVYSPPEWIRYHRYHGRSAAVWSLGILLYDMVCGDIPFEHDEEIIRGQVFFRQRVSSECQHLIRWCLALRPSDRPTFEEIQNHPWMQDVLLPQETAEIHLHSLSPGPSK
Assay [15] addresses MAP/microtubule affinity-regulating kinase 3 (Homo sapiens) (UniProt P27448). Kind of assay: Inhibition of MARK3 (unknown origin) at 10 uM relative to control.
Assay [16] is filed under the species Homo sapiens. Briefly: Inhibition of MPK (unknown origin) at 10 uM relative to control.
For assay [17], the target named is Aurora kinase B (Homo sapiens) (UniProt Q96GD4). Briefly: Inhibition of Aurora B (unknown origin) at 10 uM relative to control.
Aurora kinase B (Homo sapiens), sequence (Q96GD4 whole entry): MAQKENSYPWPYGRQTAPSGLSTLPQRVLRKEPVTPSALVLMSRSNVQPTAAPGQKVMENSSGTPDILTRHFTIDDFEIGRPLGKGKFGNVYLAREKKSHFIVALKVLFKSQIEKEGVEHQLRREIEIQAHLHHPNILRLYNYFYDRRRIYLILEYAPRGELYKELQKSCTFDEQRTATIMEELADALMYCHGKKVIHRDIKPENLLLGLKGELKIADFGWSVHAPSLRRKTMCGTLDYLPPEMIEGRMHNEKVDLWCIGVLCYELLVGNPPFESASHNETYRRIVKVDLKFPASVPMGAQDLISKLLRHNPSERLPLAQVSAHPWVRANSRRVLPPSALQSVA
In another assay the test system is KB 3-1. Kind of assay: Cytotoxicity against human KB-3-1 cells by MTT assay. The class given is functional, cell-based.

Cyclin-dependent kinase 5/CDK5 activator 1, sequence (Q00535 whole entry): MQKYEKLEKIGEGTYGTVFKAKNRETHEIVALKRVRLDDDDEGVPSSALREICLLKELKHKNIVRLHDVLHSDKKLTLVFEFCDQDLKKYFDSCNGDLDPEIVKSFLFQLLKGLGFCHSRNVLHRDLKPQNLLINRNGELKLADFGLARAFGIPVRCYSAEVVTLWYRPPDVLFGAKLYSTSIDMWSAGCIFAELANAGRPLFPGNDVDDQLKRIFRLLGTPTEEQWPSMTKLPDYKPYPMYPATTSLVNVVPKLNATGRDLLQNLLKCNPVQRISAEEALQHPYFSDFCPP
Cyclin-dependent kinase 5/CDK5 activator 1, sequence (Q15078 whole entry, further chain): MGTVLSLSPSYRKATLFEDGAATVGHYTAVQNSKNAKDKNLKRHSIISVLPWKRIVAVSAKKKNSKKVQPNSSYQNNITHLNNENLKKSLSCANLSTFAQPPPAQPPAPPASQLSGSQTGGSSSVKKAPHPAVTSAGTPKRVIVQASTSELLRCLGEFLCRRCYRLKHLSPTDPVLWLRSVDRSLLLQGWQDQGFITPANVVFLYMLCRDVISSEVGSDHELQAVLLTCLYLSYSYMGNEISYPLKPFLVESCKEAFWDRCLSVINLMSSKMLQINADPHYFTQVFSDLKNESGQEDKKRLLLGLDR
Serine/threonine-protein kinase Chk1, sequence (O14757 whole entry): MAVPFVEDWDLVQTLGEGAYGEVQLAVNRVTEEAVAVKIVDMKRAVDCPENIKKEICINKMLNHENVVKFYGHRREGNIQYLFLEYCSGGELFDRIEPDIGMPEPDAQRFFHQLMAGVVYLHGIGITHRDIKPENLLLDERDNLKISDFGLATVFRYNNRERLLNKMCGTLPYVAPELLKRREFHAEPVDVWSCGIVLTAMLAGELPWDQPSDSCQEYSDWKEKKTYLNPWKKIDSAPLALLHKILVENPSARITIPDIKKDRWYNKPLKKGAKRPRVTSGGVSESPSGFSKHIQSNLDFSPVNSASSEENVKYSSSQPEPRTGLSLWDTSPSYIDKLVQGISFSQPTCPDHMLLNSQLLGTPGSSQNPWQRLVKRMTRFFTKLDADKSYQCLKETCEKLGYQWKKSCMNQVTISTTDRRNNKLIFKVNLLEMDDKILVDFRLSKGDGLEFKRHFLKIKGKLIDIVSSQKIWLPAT
Cyclin-dependent kinase 4/cyclin D1, sequence (P11802 whole entry): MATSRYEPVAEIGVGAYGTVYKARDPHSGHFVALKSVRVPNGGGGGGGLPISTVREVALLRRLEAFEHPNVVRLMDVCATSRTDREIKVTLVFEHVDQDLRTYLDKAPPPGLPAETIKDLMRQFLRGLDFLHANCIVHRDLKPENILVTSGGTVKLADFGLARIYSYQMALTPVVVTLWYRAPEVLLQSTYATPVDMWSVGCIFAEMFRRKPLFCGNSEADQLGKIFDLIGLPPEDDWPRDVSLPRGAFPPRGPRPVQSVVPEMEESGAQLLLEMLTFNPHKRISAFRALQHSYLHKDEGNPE
Cyclin-dependent kinase 4/cyclin D1, sequence (P24385 whole entry, further chain): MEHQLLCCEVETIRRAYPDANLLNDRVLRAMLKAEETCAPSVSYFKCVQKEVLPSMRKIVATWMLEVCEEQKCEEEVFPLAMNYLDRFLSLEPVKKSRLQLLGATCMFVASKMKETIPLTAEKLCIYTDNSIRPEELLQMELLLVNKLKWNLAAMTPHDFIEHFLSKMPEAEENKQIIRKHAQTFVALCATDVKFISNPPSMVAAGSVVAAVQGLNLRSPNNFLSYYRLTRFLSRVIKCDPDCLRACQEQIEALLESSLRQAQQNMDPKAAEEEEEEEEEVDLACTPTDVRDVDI

The compound `O=C1Cc2c(-c3ccco3)cc(-c3ccccc3)nc2-c2ccccc2N1` returned a GI50 in the assay on 786-0 of 5.5 µM. Compound `O=C1NC(=O)/C(=C2\CCNC(=O)c3[nH]ccc32)N1` [SPONGIACIDIN C] displayed an IC50 against Protein kinase C (PKC) of 22 µM. In the assay with L5178Y, `Nc1ncc2c(n1)CNC(=O)c1[nH]c(Br)c(Br)c1-2` registered an EC50 of 9 µg/mL (≈ 24.1 µM). `O=C1Cc2c([nH]c3cc[n+]([O-])cc23)-c2ccccc2N1`: the concentration for half-maximal inhibition (IC50) in assay [1] is greater than 10 µM; on Casein kinase I, greater than 10 µM; against CDK9/Cyclin T, 7.4 µM; in [2], greater than 10 µM; in assay [3], greater than 10 µM; in assay [4], greater than 10 µM.

Consider `NC1=NC(=O)/C(=C2\CCNC(=O)c3[nH]cc(Br)c32)N1`, for which the half-maximal inhibitory concentration (IC50) in assay [3] is 0.079 µM; in assay [4], 1.5 µM. In [3], `O=C1NCC/C(=N\Nc2cccnc2)c2c1[nH]c1ccc(F)cc21` came in with a 50% inhibitory concentration (IC50) of 0.012 µM. In the case of `O=C1N=C(NCc2ccccc2)N/C1=C1/CCNC(=O)c2[nH]c(-c3ccccc3)cc21`, the Ratio IC50 in the assay filed under Homo sapiens [5] stood at 32. In [3], `O=C1NCC/C(=N\Nc2ccc(Cl)cn2)c2c1[nH]c1ccc(F)cc21` gave a 50% inhibitory concentration (IC50) of 0.075 µM. As to `COc1ccc2c3c([nH]c2c1)C(=O)NCc1ccccc1-3`, the IC50 in the assay on MDA-MB-231 and in the assay with MCF7 was 4 µM each time.

Take `CCNC1=NC(=O)/C(=C2\CCNC(=O)c3[nH]c(Br)c(Br)c32)N1`: the IC50 was 9.12 µM in assay [3] and greater than 10 µM in [4]. Compound `O=C1NCC/C(=N\Nc2cccnc2Cl)c2c1[nH]c1ccc(F)cc21` had an IC50 in [3] of 0.012 µM. `Nc1ncc(C2=CCNC(=O)c3[nH]c(Br)c(Br)c32)[nH]1` [STEVENSINE] came in with a concentration giving a half-maximal response (EC50) in the assay on L5178Y of 3.5 µg/mL (≈ 9.04 µM). Take `COc1ccc2c(c1)C(CC(=O)O)CCC(=O)N2CC(=O)NC[C@H]1CC[C@H](Nc2nc3ccccc3[nH]2)CC1` (some centres not stated): at Integrin alpha-V/beta-3, the half-maximal inhibitory concentration (IC50) is 0.26 nM. As to `O=C1Cc2c([nH]c3ccc([N+](=O)[O-])cc23)-c2ccccc2N1` [ALSTERPAULLONE], the IC50 in [6] was greater than 10 µM; in [7], greater than 100 µM; in assay [8], greater than 10 µM; in assay [9], greater than 100 µM; in assay [10], 7 µM. As for `NC1=NC(=O)/C(=C2\CCNC(=O)c3[nH]c4ccc(F)cc4c32)N1`, the IC50 in assay [3] was found to be 0.177 µM; in assay [4] it was 0.55 µM. In the assay with 786-0, `O=C1Cc2c(-c3ccccc3)cc(-c3ccco3)nc2-c2ccccc2N1` showed a GI50 of 6.6 µM.

Consider `CCCNC1=NC(=O)/C(=C2\CCNC(=O)c3[nH]c(-c4ccccc4)cc32)N1`, for which, in [11], the IC50 was greater than 1 µM. In addition, in the assay filed under Homo sapiens [5], the Ratio IC50 is greater than 64. Turning to `NC1=NC(=O)/C(=C2\CCNC(=O)c3[nH]c(Br)c(Br)c32)N1`, the figures for the IC50 in [3] and in assay [4] were 0.056 µM and 0.53 µM, respectively. As to `O=C1NCC/C(=N\Nc2ccccn2)c2c1[nH]c(Br)c2Br`, the IC50 in assay [3] stood at 10.4 µM. For the compound `CCOC(=O)c1cc2c([nH]1)-c1[nH]c3ccccc3c1C(=O)NC2`, the inhibition (in assay [12]; in assay [13]; in [14]; in [15]; in the assay filed under Homo sapiens [16]; in assay [17]) was 50% each time. On to `NC1=NC(=O)/C(=C2\CCNC(=O)c3[nH]c(-c4ccccc4)cc32)N1`, for which the Ratio IC50 in the assay filed under Homo sapiens [5] was found to be 66. Turning to `O=C1NC(=O)/C(=C2\CCNC(=O)c3[nH]c(Br)cc32)N1` [SPONGIACIDIN D], the IC50 was 4.5 µM against Casein kinase I, 7 µM in [3], 4 µM in assay [4] and 9 µM on Protein kinase C (PKC). `O=C1NCCCc2ccccc2-c2c1[nH]c1ccccc21` displayed an IC50 with KB 3-1 of 8 µM. On Integrin alpha-V/beta-3, `O=C(O)CC1CCC(=O)N(CC(=O)NC[C@H]2CC[C@H](Nc3nc4ccccc4[nH]3)CC2)c2ccccc21` (some centres not stated) had a half-inhibitory concentration (IC50) of 0.04 nM.

Values taken from ChEMBL document CHEMBL5226304, “Fused-azepinones: Emerging scaffolds of medicinal importance” (Eur J Med Chem, 2021).
